The source of these data is patent US4642314A, “Antiulcer compounds” (Nisshin Flour Milling Co., Ltd., priority 1984, dated 1987).

Data set [1] concerns acetic acid-induced ulcer. Briefly: Acetic acid-induced ulcer (Curative test). The note with it: Table 2; rat, 0.05 ml of 15% acetic acid underneath the serosa; lesion area on 14th day. Type of data set: in vivo, rat (male SD rats). The procedure:
(§1) In the case of reserpine-induced ulcer, the assay was performed according to the description in "Arch. Int. Pharmacodym. Ther. 147,113 (1964)", and in the case of acetic acid-induced ulcer, the assay was performed according to the method described in "Jap. J. Pharmac. 19,418 (1969)", by inducing experimental ulcer in rat and evaluating the effect thereon of the compounds tested.
Groups of rats, each consisting of 6 male SD rats weighing 150-200 g were used. The stomach of ether-anesthesized rat was exposed and while taking acre not to injure blood vessels, 0.05 ml of 15% aqueous acetic acid solution was injected underneath the serosa. On the 14th day, the rats were killed with chloroform, the stomach taken out and the area of the infected lesion measured.
The curative ratio was calculated using the above equation: [formula]

The subject of data set [2] is reserpine-induced ulcer. Briefly: Reserpine-induced ulcer (Preventive test). Type of data set: in vivo, rat (male SD rats). The note with it: Table 1; rat, 100 mg/kg oral, 30 min before reserpine 15 mg/kg i.p.; evaluated at 18 h; read-out: Preventive effect (preventive ratio). As to the method:
as §1
Groups of rats, each consisting of 6 male SD rats weighing 150-200 g were used. After 24 hours' fasting, a sample compound was orally administered to the rat at the dose of 100 mg/kg body weight, and 30 minutes after the administration, reserpine was intraperitoneally injected at the dose of 15 mg/kg body weight. Eighteen hours after the administration, the rats were killed with chloroform. The stomach was taken out, and severity of the hemorrhaging lesion was evaluated according to the method as above ("Arch. Int. Pharmacodym. Ther. 147,113 (1964)).
The preventive ratio was calculated using the following equation, [formula] wherein the control animals were intraperitoneally given reserpine only, at the dose of 15 mg/kg body weight.

Data set [3] is described as follows: acute toxicity (LD50), intraperitoneal route in mice. Type of data set: in vivo. The note with it: mouse, in vivo, ip.
Data set [4] concerns mice. The data set is described as above. Type of data set: in vivo.

As for `CC(C)=CCCC(C)=CCCC(C)=CCCC(C)=CCCC(C)=CCCC(C)=CCCC(C)=CCCC(C)=CCCC(C)=CCCC(C)=CCOC(=O)CCC=C(C)CCCC(C)CCCC(C)CCCC(C)C` (stereo not drawn) [Decaprenyl phytylacetate], in data set [1], the “Curative effect (curative ratio)” value was “++ (25%-40%)”. The inhibition in vivo at 100 mg/kg in data set [2] is 40 to 60%. Also, the LD50 in data set [3] (Table 2) and in data set [4] (Table 1) was greater than 5000 mg/kg throughout.

Turning to `CC(C)=CCCC(C)=CCCC(C)=CCCC(C)=CCCC(C)=CCCC(C)=CCCC(C)=CCCC(C)=CCCC(C)=CCCC(C)=CCCC(=O)OCC=C(C)CCCC(C)CCCC(C)CCCC(C)C` (stereo not drawn) [Phytyl decaprenylacetate], the “Curative effect (curative ratio)” value in data set [1] is on record as “+ (10%-25%)”. In addition, in data set [2], the inhibition in vivo at 100 mg/kg was in the range of 10 to 40%. Also, the LD50 in data set [3] (Table 2) and in data set [4] (Table 1) was greater than 4000 mg/kg throughout.

In the case of `CC(C)=CCC/C(C)=C/CC/C(C)=C/CC/C(C)=C/CC/C(C)=C/CC/C(C)=C/CC/C(C)=C/CC/C(C)=C/CC/C(C)=C/CO` [Solanesol], the “Curative effect (curative ratio)” value in data set [1] is listed as “++ (25%-40%)”. Moreover, in data set [2], the inhibition in vivo at 100 mg/kg lay within 10 to 40%. The LD50 in data set [3] (Table 1) and in data set [4] (Table 2) was greater than 4000 mg/kg each time.

As to `CC(=O)OCC=C(C)CCC=C(C)CCC=C(C)CCC=C(C)CCC=C(C)CCC=C(C)CCC=C(C)CCC=C(C)CCC=C(C)CCC=C(C)C` [Decaprenyl acetate], the “Curative effect (curative ratio)” value in data set [1] is listed as “+ (10%-25%)”. In addition, in data set [2], the inhibition in vivo at 100 mg/kg lay in the range of 40 to 60%. Further, the LD50 in data set [3] (Table 2) and in data set [4] (Table 1) was greater than 5000 mg/kg throughout.

On to `CCCCCCCC/C=C\CCCCCCCC(=O)OCC=C(C)CCC=C(C)CCC=C(C)CCC=C(C)CCC=C(C)CCC=C(C)CCC=C(C)CCC=C(C)CCC=C(C)C` [Solanesyl oleate], for which, in data set [1], the “Curative effect (curative ratio)” value is listed as “++ (25%-40%)”. For the same compound, the inhibition in vivo at 100 mg/kg in data set [2] was 10 to 40%. For the same compound, the LD50 in data set [3] (Table 2) and in data set [4] (Table 1) was greater than 4000 mg/kg throughout.

Turning to `C/C(=C\CCC(=O)O)CCC[C@H](C)CCC[C@H](C)CCCC(C)C` [Phytylacetic acid], the “Curative effect (curative ratio)” value in data set [1] is on record as “+ (10%-25%)”. The inhibition in vivo at 100 mg/kg in data set [2] was in the range of 10 to 40%. In addition, the LD50 in data set [3] (Table 2) and in data set [4] (Table 1) was greater than 5000 mg/kg throughout.

On to `C=CC(C)(O)CCC=C(C)CCC=C(C)CCC=C(C)CCC=C(C)CCC=C(C)CCC=C(C)CCC=C(C)CCC=C(C)CCC=C(C)C` (stereo not drawn) [Isodecaprenol], for which the “Curative effect (curative ratio)” value in data set [1] is “++ (25%-40%)”. Besides, the inhibition in vivo at 100 mg/kg in data set [2] was 10 to 40%. The LD50 in data set [3] (Table 1) and in data set [4] (Table 2) was greater than 4000 mg/kg in each case.

Turning to `CCCCCCCC/C=C/CCCCCCCCCCCC(=O)OC/C=C(\C)CCC[C@H](C)CCC[C@H](C)CCCC(C)C` [Phytyl brassidate], the “Curative effect (curative ratio)” value in data set [1] is reported as “++ (25%-40%)”. Also, the inhibition in vivo at 100 mg/kg in data set [2] was 10 to 40%. Further, the LD50 in data set [3] (Table 2) and in data set [4] (Table 1) was greater than 4000 mg/kg throughout.

Turning to `CCCCCCCC/C=C\CCCCCCCC(=O)OC/C=C(\C)CCC[C@H](C)CCC[C@H](C)CCCC(C)C` [Phytyl oleate], the “Curative effect (curative ratio)” value in data set [1] is recorded as “+++ (40%-)”. Moreover, the inhibition in vivo at 100 mg/kg in data set [2] is greater than 60%. Further, the LD50 in data set [3] (Table 2) and in data set [4] (Table 1) was greater than 4000 mg/kg each time.

On to `C=CC(C)(CCCC(C)CCCC(C)CCCC(C)C)OC(=O)CCCCCCC/C=C\CCCCCCCC` (stereo not drawn) [Isophytyl oleate], for which the “Curative effect (curative ratio)” value in data set [1] was “+++ (40%-)”. Besides, the inhibition in vivo at 100 mg/kg in data set [2] is greater than 60%. The LD50 in data set [3] (Table 2) and in data set [4] (Table 1) was greater than 4000 mg/kg each time.

In the case of `CC(C)=CCCC(C)=CCCC(=O)Oc1c(C)c(C)c2c(c1C)CCC(C)(CCCC(C)CCCC(C)CCCC(C)C)O2` (stereo not drawn) [α-Tocopheryl geranylacetate], the “Curative effect (curative ratio)” value in data set [1] is listed as “+ (10%-25%)”. Besides, the inhibition in vivo at 100 mg/kg in data set [2] lay in the range of 40 to 60%. The LD50 in data set [3] (Table 2) and in data set [4] (Table 1) was greater than 4000 mg/kg throughout.

With `CC(=CCCC(=O)Oc1c(C)c(C)c2c(c1C)CCC(C)(CCCC(C)CCCC(C)CCCC(C)C)O2)CCCC(C)CCCC(C)CCCC(C)C` (stereo not drawn) [α-Tocopheryl phytylacetate], in data set [1], the “Curative effect (curative ratio)” value is listed as “+++ (40%-)”. For the same compound, the inhibition in vivo at 100 mg/kg in data set [2] is 10 to 40%. The LD50 in data set [3] (Table 2) and in data set [4] (Table 1) was greater than 4000 mg/kg throughout.

Turning to `CC(C)=CCCC(C)=CCCC(C)=CCCC(=O)Oc1c(C)c(C)c2c(c1C)CCC(C)(CCCC(C)CCCC(C)CCCC(C)C)O2` (stereo not drawn) [α-Tocopheryl farnesylacetate], the “Curative effect (curative ratio)” value in data set [1] was “++ (25%-40%)”. The inhibition in vivo at 100 mg/kg in data set [2] lay within 40 to 60%. Also, the LD50 in data set [3] (Table 2) and in data set [4] (Table 1) was greater than 4000 mg/kg in each case.

On to `CCCCCCCC/C=C\CCCCCCCC(=O)OCC=C(C)CCC=C(C)CCC=C(C)CCC=C(C)CCC=C(C)CCC=C(C)CCC=C(C)CCC=C(C)CCC=C(C)CCC=C(C)C` [Decaprenyl oleate], for which, in data set [1], the “Curative effect (curative ratio)” value is “++ (25%-40%)”. The inhibition in vivo at 100 mg/kg in data set [2] is 40 to 60%. Moreover, the LD50 in data set [3] (Table 2) and in data set [4] (Table 1) was greater than 5000 mg/kg throughout.

Consider `CC(C)=CCCC(C)=CCCC(C)=CCCC(=O)OC/C=C(\C)CCC[C@H](C)CCC[C@H](C)CCCC(C)C` [Phytyl farnesylacetate], for which the inhibition in vivo at 100 mg/kg in data set [2] was 10 to 40%. The compound also came in with an LD50 in data set [3] (Table 1) greater than 5000 mg/kg.

With `CC(C)=CCC/C(C)=C/CCC(=O)OC/C=C(\C)CCC[C@H](C)CCC[C@H](C)CCCC(C)C` [Phytyl geranylacetate], the inhibition in vivo at 100 mg/kg in data set [2] is 10 to 40%. This compound also gave an LD50 in data set [3] (Table 1) greater than 5000 mg/kg.

With `CCCCCCCC/C=C\CCCCCCCCCCCC(=O)OC/C=C(\C)CCC[C@H](C)CCC[C@H](C)CCCC(C)C` [Phytyl erucate], the inhibition in vivo at 100 mg/kg in data set [2] was in the range of 10 to 40%. Also, in data set [3] (Table 1), the LD50 was greater than 4000 mg/kg.

On to `CC(C)=CCCC(C)=CCCC(C)=CCCC(=O)OCC=C(C)CCC=C(C)CCC=C(C)CCC=C(C)CCC=C(C)CCC=C(C)CCC=C(C)CCC=C(C)CCC=C(C)C` [Solanesyl farnesylacetate], for which the inhibition in vivo at 100 mg/kg in data set [2] lay in the range of 10 to 40%. In data set [3] (Table 1), this compound registered an LD50 greater than 4000 mg/kg.

For `CC(C)=CCCC(C)CCCC(=O)Oc1c(C)c(C)c2c(c1C)CCC(C)(CCCC(C)CCCC(C)CCCC(C)C)O2` (stereo not drawn) [α-Tocopheryl citronellylacetate], in data set [2], the inhibition in vivo at 100 mg/kg is greater than 60%. Also, the LD50 in data set [3] (Table 1) is greater than 4000 mg/kg.

Take `CC(C)=CCCC(C)=CCCC(C)=CCCC(=O)OCC=C(C)CCC=C(C)C` [Gefarnate, 3,7-dimethyl-2,6-octadienyl-5,9,13-trimethyl-4,8,12-tetradecatrienoate, reference compound]: the “Curative effect (curative ratio)” value in data set [1] was “± (-10%)”. Besides, the inhibition in vivo at 100 mg/kg in data set [2] lay within 10 to 40%.

For `CCCCCCCC/C=C/CCCCCCCC(=O)OCC=C(C)CCC=C(C)CCC=C(C)CCC=C(C)CCC=C(C)CCC=C(C)CCC=C(C)CCC=C(C)CCC=C(C)CCC=C(C)C` [Decaprenyl elaidate], the inhibition in vivo at 100 mg/kg in data set [2] was 10 to 40%. Further, the LD50 in data set [3] (Table 1) is greater than 5000 mg/kg.

In the case of `CC(C)=CCCC(C)=CCCC(C)=CCCC(C)=CCCC(C)=CCCC(C)=CCCC(C)=CCCC(C)=CCCC(C)=CCCC(C)=CCCC(=O)OCC=C(C)CCC=C(C)CCC=C(C)CCC=C(C)CCC=C(C)CCC=C(C)CCC=C(C)CCC=C(C)CCC=C(C)CCC=C(C)C` [Decaprenyl decaprenylacetate], the “Curative effect (curative ratio)” value in data set [1] is on record as “+ (10%-25%)”. Also, in data set [4] (Table 2), the LD50 was greater than 5000 mg/kg.

As a reminder, the LD50 is the dose at which mortality reaches 50%. High values mean lower toxicity, low ones greater toxicity.
